Patent US20040082551A1, “Novel pyrazoles and their use as p38 kinase inhibitors” (priority 2002, published 2004)
Several values for one entry are separate records, joined by “and”; a condition that tells them apart may be missing. Identical values can stand only once. Counter-ions that a name gives are not always drawn.

These compounds were tested against T1, human p38 kinase alpha (Homo sapiens, UniProt Q16539) (assay: In vitro p38 kinase inhibition analysis (PHAS-I 32P-ATP or EGFRP 33P-ATP format)). Settings: Table 1; compounds of Examples 1-28; one of two in vitro assay methods; 4-methylbenzenesulfonate; read-out: p38α Kinase Inhibition (IC50 in μM).
T1 construct: The coding region of the human p38α cDNA was obtained by PCR-amplification from RNA isolated from the human monocyte cell line THP.1; made in house; host or cells: E. coli DH10B
Type: biochemical
Method: The ability of compounds to inhibit human p38 kinase alpha was evaluated using one of two in vitro assay methods. In the first method, activated human p38 kinase alpha phosphorylates a biotinylated substrate, PHAS-I (phosphorylated heat and acid stable protein-insulin inducible), in the presence of gamma ^32P-ATP (^32P-ATP). PHAS-I was biotinylated before the assay, and provided a means of capturing the substrate which was phosphorylated during the assay. p38 Kinase was activated by MKK6. Compounds were tested in 10 fold serial dilutions over the range of 100 μM to 0.001 μM using 1% DMSO. Each concentration of inhibitor was tested in triplicate.
All reactions were carried out in 96 well polypropylene plates. Each reaction well contained 25 mM HEPES pH 7.5, 10 mM magnesium acetate, and 50 μM unlabeled ATP. […] Activated human p38 kinase alpha was used at 1 μg per 50 μl reaction volume, representing a final concentration of 0.3 μM. Gamma ^32P-ATP was used to follow the phosphorylation of PHAS-I. ^32P-ATP has a specific activity of 3000 Ci/mmol, and was used at 1.2 μCi per 50 μl reaction volume. The reaction proceeded either for one hr or overnight at 30° C.
Following incubation, 20 μl of reaction mixture was transferred to a high capacity streptavidin coated filter plate (SAM-streptavidin-matrix, Promega) prewetted with phosphate buffered saline. The transferred reaction mix was allowed to contact the streptavidin membrane of the Promega plate for 1-2 min. […] Filter plates were air dried and 20 μl of scintillant was added. The plates were sealed and counted.
A second assay format was alternatively employed. This assay is based on p38 kinase alpha being induced phosphorylation of EGFRP (epidermal growth factor receptor peptide, a 21 mer) in the presence of ^33P-ATP. Compounds were tested in 10 fold serial dilutions over the range of 100 μM to 0.001 μM in 10% DMSO. Each concentration of inhibitor was tested in triplicate. Compounds were evaluated in 50 μl reaction volumes in the presence of 25 mM HEPES pH 7.5, 10 mM magnesium acetate, 4% glycerol, 0.4% bovine serum albumin, 0.4 mM DTT, 50 μM unlabeled ATP, 25 μg EGFRP (200 μM), and 0.05 uCi gamma ^33P-ATP. Reactions were initiated by addition of 0.09 μg of activated, purified human GST-p38 kinase alpha. Activation was carried out using GST-MKK6 (5:1,p38:MKK6) for one hr at 30° C. in the presence of 50 μM ATP. Following incubation for 60 min at room temperature, the reaction was stopped by addition of 150 μl of AG 1×8 resin in 900 mM sodium formate buffer, pH 3.0 (1 volume resin to 2 volumes buffer). The mixture was mixed three times with pipetting. Afterward, the resin was allowed to settle. A total of 50 μl of clarified solution head volume was transferred from the reaction wells to Microlite-2 plates. 150 μl of Microscint 40 was then added to each well of the Microlite plate, and the plate was sealed, mixed, and counted.

T1 sequence (Q16539 whole entry): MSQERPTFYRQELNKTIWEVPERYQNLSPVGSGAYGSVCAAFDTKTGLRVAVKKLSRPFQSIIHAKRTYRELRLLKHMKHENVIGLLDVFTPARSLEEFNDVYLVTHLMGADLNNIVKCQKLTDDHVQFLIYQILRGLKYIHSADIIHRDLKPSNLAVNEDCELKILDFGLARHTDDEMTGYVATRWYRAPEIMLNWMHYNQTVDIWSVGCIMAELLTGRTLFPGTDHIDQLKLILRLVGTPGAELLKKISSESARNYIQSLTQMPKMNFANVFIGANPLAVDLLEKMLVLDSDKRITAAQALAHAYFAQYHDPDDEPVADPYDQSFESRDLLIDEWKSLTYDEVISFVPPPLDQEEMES

Structure (SMILES) | IC50 [µM]
C[C@@H](N[C@H]1CC[C@H](c2[nH]nc(-c3ccc(Cl)cc3)c2-c2ccncn2)CC1)c1ccccc1 [Example 2, 4-[3-(4-chlorophenyl)-4-pyrimidin-4-yl-1H-pyrazol-5-yl]-N-[(1R)-1-phenylethyl]-trans-cyclohexanamine 4-methylbenzenesulfonate] | 0.0279

Same assay, conditions: Table 1; compounds of Examples 1-28; one of two in vitro assay methods; Hydrochloride Hydrate; read-out: p38α Kinase Inhibition (IC50 in μM)

Structure (SMILES) | IC50 [µM]
CN(CCO)[C@H]1CC[C@H](c2[nH]nc(-c3ccc(Cl)cc3)c2-c2ccncn2)CC1 [Example 12, 2-[{4-[3-(4-chlorophenyl)-4-pyrimidin-4-yl-1H-pyrazol-5-yl]cyclohexyl)(methyl)amino]ethanol Hydrochloride Hydrate] | 0.0379

Same assay, conditions: Table 1; compounds of Examples 1-28; one of two in vitro assay methods; Trifluoroacetate; read-out: p38α Kinase Inhibition (IC50 in μM)

Structure (SMILES) | IC50 [µM]
Clc1ccc(-c2n[nH]c([C@H]3CC[C@H](N4CCCCC4)CC3)c2-c2ccncn2)cc1 [Example 7, 4-[3-(4-chlorophenyl)-5-(4-piperidin-1-yl-cyclohexyl)-1H-pyrazol-4-yl]pyrimidine Trifluoroacetate] | 0.0238

Same assay, conditions: Table 1; compounds of Examples 1-28; one of two in vitro assay methods; read-out: p38α Kinase Inhibition (IC50 in μM)

Structure (SMILES) | IC50 [µM]
CC(c1ccc(C(C)(C)O)cc1)N1CCC(c2[nH]nc(-c3ccc(Cl)cc3)c2-c2ccncn2)CC1 (centres unmarked) [Example 18, 2-[4-(1-{4-[3-(4-chlorophenyl)-4-pyrimidin-4-yl-1H-pyrazol-5-yl]piperidin-1-yl}ethyl)phenyl]propan-2-ol] | 0.0106
O=C(COP(=O)(O)O)N1CCC(c2[nH]nc(-c3ccc(Cl)cc3)c2-c2ccncn2)CC1 [Example 22, 2-{4-[3-(4-chlorophenyl)-4-pyrimidin-4-yl-1H-pyrazol-5-yl]piperidin-1-yl}-2-oxoethyl Dihydrogen Phosphate] | 0.00607
Clc1ccc(-c2n[nH]c([C@H]3CC[C@H](NC4CCCCC4)CC3)c2-c2ccncn2)cc1 [Example 4] | 0.0379
CC(C)N[C@H]1CC[C@H](c2[nH]nc(-c3ccc(F)c(C(F)(F)F)c3)c2-c2ccncn2)CC1 [Example 14, 4-{3-[4-fluoro-3-(trifluoromethyl)phenyl]-4-pyrimidin-4-yl-1H-pyrazol-5-yl}-N-isopropylcyclohexanamine] | 0.0723
C[C@@H](N[C@H]1CC[C@H](c2[nH]nc(-c3ccc(Cl)cc3)c2-c2ccncn2)CC1)c1ccc(F)cc1 [Example 5, 4-[3-(4-chlorophenyl)-4-pyrimidin-4-yl-1H-pyrazol-5-yl]-N-[(1R)-1-(4-fluorophenyl)ethyl]-trans-cyclohexanamine] | 0.0232
OC1CCCC1N1CCC(c2[nH]nc(-c3ccc(Cl)cc3)c2-c2ccncn2)CC1 (centres unmarked) [Example 17, 2-{4-[3-(4-chlorophenyl)-4-pyrimidin-4-yl-1H-pyrazol-5-yl]piperidin-1-yl}cyclopentanol Fumarate] | 0.0189
CN(C)CC(=O)OCC(=O)N1CCC(c2[nH]nc(-c3ccc(Cl)cc3)c2-c2ccncn2)CC1 [Example 25, 2-{4-[3-(4-chlorophenyl)-4-pyrimidin-4-yl-1H-pyrazol-5-yl]piperidin-1-yl}-2-oxoethyl N,N-dimethylglycinate Hydrochloride] | 0.0118
Clc1ccc(-c2n[nH]c([C@H]3CC[C@H](NC4CCCCC4)CC3)c2-c2ccncn2)cc1 [Example 3, 4-[3-(4-chlorophenyl)-4-pyrimidin-4-yl-1H-pyrazol-5-yl]-N-cyclohexyltrans-cyclohexanamine] | 0.0452

Same assay, conditions: Table 2; additional pyrazole compounds, Examples 56-169; read-out: p38α Kinase Inhibition (IC50 in μM)

Structure (SMILES) | IC50
O=C(CO)N1CCC(c2[nH]nc(-c3ccc(Cl)cc3O)c2-c2ccncn2)CC1 [Example 98] | 1.31 µM
COc1cccc(-c2n[nH]c(C3CCN(C(=O)CO)CC3)c2-c2ccncn2)c1 [Example 85] | 2.1 µM
O=C(CO)N1CCC(c2[nH]nc(-c3cccc(Cl)c3F)c2-c2ccncn2)CC1 [Example 106] | 0.297 µM
C[C@H](O)C(=O)N1CCC(c2[nH]nc(-c3cc(F)cc(Cl)c3)c2-c2ccncn2)CC1 [Example 108] | 1.62 µM
O=C(CO)N1CCC(c2[nH]nc(-c3ccc(F)c(Cl)c3)c2-c2ccncn2)CC1 [Example 70] | 0.147 µM
CC(C)(C)OC(=O)N1CCC(c2[nH]nc(-c3ccc(Cl)cc3)c2-c2ccnc(O[C@@H]3CCOC3)n2)CC1 [Example 132] | 3.34 µM
O=C(CO)N1CCC(c2[nH]nc(-c3cccc(C(F)(F)F)c3F)c2-c2ccncn2)CC1 [Example 103] | 5.46 µM
CN1CCC(c2[nH]nc(-c3ccc(F)c(C(F)(F)F)c3)c2-c2ccnc(NC3CCCC3)n2)CC1 [Example 167] | 0.0063 µM
CN(C)CCOc1nccc(-c2c(-c3cccc(Cl)c3)n[nH]c2C2CCN(C(=O)CO)CC2)n1 [Example 116] | 0.727 µM
C[C@@H](O)C(=O)N1CCC(c2[nH]nc(-c3ccc(Cl)cc3F)c2-c2ccncn2)CC1 [Example 113] | 0.207 µM
O=C(CO)N1CCC(c2[nH]nc(-c3cc(Cl)cc(Cl)c3)c2-c2ccncn2)CC1 [Example 75] | 3.39 µM
CN(C)CCOc1nccc(-c2c(-c3ccc(Cl)cc3F)n[nH]c2C2CCNCC2)n1 [Example 156] | 0.637 µM and 0.627 µM
CN(C)CCNc1nccc(-c2c(-c3cccc(Cl)c3)n[nH]c2C2CCN(C(=O)CO)CC2)n1 [Example 117] | 0.699 µM
CC(C)(C)OC(=O)N1CCC(c2[nH]nc(-c3ccc(Cl)cc3)c2-c2ccnc(Oc3ccc(C#N)cc3)n2)CC1 [Example 135] | 1.5 µM
O=C([C@@H](O)CO)N1CCC(c2[nH]nc(-c3ccc(Cl)cc3)c2-c2ccncn2)CC1 [Example 65] | 0.256 µM
O=C(CO)N1CCC(c2[nH]nc(-c3ccc(F)c(C(F)(F)F)c3)c2-c2ccnc(NC3CCCC3)n2)CC1 [Example 169] | 0.0032 µM
O=C(CO)N1CCC(c2[nH]nc(-c3cccc(OC(F)(F)F)c3)c2-c2ccncn2)CC1 [Example 83] | 25.7 µM

Structure (SMILES) | IC50
CC(C)C(N)C(=O)OCC(=O)N1CCC(c2[nH]nc(-c3ccc(Cl)cc3)c2-c2ccncn2)CC1 (centres unmarked) [Example 56] | 0.0402 µM
C[C@H](O)C(=O)N1CCC(c2[nH]nc(-c3cccc(C(F)(F)F)c3F)c2-c2ccncn2)CC1 [Example 112] | 5.18 µM
O=C(CO)N1CCC(c2[nH]nc(-c3ccc(F)c(F)c3)c2-c2ccncn2)CC1 [Example 60] | 0.753 µM
COc1ccc(-c2n[nH]c(C3CCN(C(=O)CO)CC3)c2-c2ccncn2)cc1Cl [Example 73] | 1.2 µM
C[C@@H](N[C@H]1CC[C@H](c2[nH]nc(-c3ccc(Cl)cc3)c2-c2ccncn2)CC1)c1ccccc1 [Example 123] | 0.0427 µM
CN(C)CCNc1nccc(-c2c(-c3ccc(Cl)cc3F)n[nH]c2C2CCNCC2)n1 [Example 161] | 0.202 µM
Fc1ccc(-c2n[nH]c(C3CCNCC3)c2-c2ccnc(NC3CCCC3)n2)cc1C(F)(F)F [Example 164] | 0.0225 µM
O=C(CO)N1CCC(c2[nH]nc(-c3cc(Cl)ccc3F)c2-c2ccncn2)CC1 [Example 105] | 0.247 µM
COc1cc(-c2n[nH]c(C3CCN(C(=O)CO)CC3)c2-c2ccncn2)ccc1Cl [Example 72] | 4.6 µM
CN(C)CCOc1nccc(-c2c(-c3ccc(Cl)cc3)n[nH]c2C2CCN(C(=O)CO)CC2)n1 [Example 97] | 0.377 µM
O=C(CO)N1CCC(c2[nH]nc(-c3ccc(Cl)c(C(F)(F)F)c3)c2-c2ccncn2)CC1 [Example 78] | 3.16 µM
CN(C)CC(=O)OCC(=O)N1CCC(c2[nH]nc(-c3ccc(Cl)cc3)c2-c2ccncn2)CC1 [Example 130] | 0.0438 µM
CC(C)(C)OC(=O)N1CCC(c2[nH]nc(-c3ccc(Cl)cc3)c2-c2ccnc(Oc3cccc(C#N)c3)n2)CC1 [Example 134] | 1.59 µM
CN1CCC(c2[nH]nc(-c3ccc(Cl)cc3F)c2-c2ccnc(NC3CCCC3)n2)CC1 [Example 168] | 1 µM
CC(C)(C)OC(=O)N1CCC(c2[nH]nc(-c3ccc(Cl)cc3)c2-c2ccnc(OC3CCCC3)n2)CC1 [Example 131] | 1.68 µM
Clc1ccc(-c2n[nH]c(C3CCNCC3)c2-c2ccnc(NC3CCN(Cc4ccccc4)CC3)n2)cc1 [Example 150] | 0.034 µM
